No end group written: not given here.
Key:
CA125 protein = assay: ELISA assay of binding affinity and specificity; design: species or system human; conditions: HRP-conjugated M13 antibody, TMB, FIG. 1
Experimental: (§1) In order to evaluate the binding affinity and specificity of the discovered SEQ ID NO: 1 peptide to the CA125 protein, and the binding affinity and specificity of the SEQ ID NO: 2 peptide to HE4, ELISA assay was performed according to the manufacturer's instructions using CA125 protein (R&D Systems Inc, MN, USA), HE4 protein (Sinobiological, PA, USA), HRP-conjugated M13 antibody (Sinobiological, PA, USA), and TMB solution (Thermo Scientific, MA, USA). In addition, to measure the binding affinity Kd (dissociation constant), the discovered peptides of SEQ ID NO: 1 and SEQ ID NO: 2 were synthesized (Biostem, Suwon, Korea), CA125 protein and HE4 protein were each fluorescently labeled using Protein Labeling kit RED-NHS 2nd Generation (NanoTemper Technologies, Munich, Germany). Afterwards, the binding affinity between peptide and protein was measured using Monolith NT.115 (NanoTemper Technologies, Munich, Germany) according to the manufacturer's instructions.

HE4 protein = biological target: T1, HE4 protein (Homo sapiens, UniProt Q14508); assay: ELISA assay of binding affinity and specificity; conditions: HRP-conjugated M13 antibody, TMB, FIG. 1
T1 construct: purchased Sinobiological, PA, USA
T1 sequence (Q14508 31-124): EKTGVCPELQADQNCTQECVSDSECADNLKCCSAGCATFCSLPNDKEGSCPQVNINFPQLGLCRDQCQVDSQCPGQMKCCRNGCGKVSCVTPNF
Experimental: as §1

HTHGAARVPDHR [SEQ ID NO: 1]
specific binding to CA125 protein (CA125 protein): specifically bound to the CA125 protein

LGSKPIN [SEQ ID NO: 2, LGSKPIN]
specific binding to HE4 protein (HE4 protein): specifically bound to the HE4 protein
